{
  "source": "patent US20150292032A1",
  "about": "“TREATMENT OF CANCER BY TARGETING QUIESCENT CANCER CELLS” (FELICITEX THERAPEUTICS, INC., priority 2012, published 2015)",
  "key": {"[1]": {"system": "colon cancer cell line SW620", "assay": "S-phase fraction of cycling log-phase SW620 cells, BrdU pulse / PI flow cytometry", "type": "cell-based, human", "conditions": "1 μM, 24 hours", "protocol": "An experiment was run to determine if inhibition of DYRK1B activity would facilitate cells escaping quiescence and result in surge of proliferating cells, utilizing small molecule inhibitor R. Cycling, log-phase cells from colon cancer cell line SW620 were treated with 1 μM of DYRK1B inhibitor R for 24 hours with 1 hour pulse of BrdU before analysis by flow cytometry after propidium iodine staining of DNA. 38% of the cellular population was detected in the S-phase of the cell cycle. Parallel cultures were treated with the small molecule DYRK1B inhibitor R for 24 hours followed by identical FACS analysis (1-hour BrdU pulse followed by specific mAB-FITC and PI staining)."}, "[2]": {"system": "Panc-1 pancreatic cancer cells", "assay": "Quiescent (G0) cell fraction in serum-starved Panc-1 cells, two-parameter flow cytometry (Pyronin Y / Hoechst)", "type": "cell-based, human", "protocol": "Panc-1 cells were forced into the quiescent state by serum deprivation for 48 hours. Panc-1 were cultured in DMEM+0.2% FBS for 48 hours. Next the cells were switched to fresh media DMEM+10% FBS (panel A) or to fresh media DMEM+1-% FBS supplemented with 0.25 μM DYRK1B inhibitor R (panel B). As a result of this serum deprivation, 42% of cells were identified in G0 quiescent state, as depicted in FIG. 5A. The percentage of quiescent cells was identified by flow cytometry FACS analysis.\nNext, a DYRK1B small molecule inhibitor R, pictured in FIG. 7, was applied to inhibit the activity of DYRK1B kinase, and the percentage of quiescent cells was again analyzed. […] Upon inhibition of the activity of DYRK1B kinase, pancreatic cancer cells left the G0 quiescent state and progressed into cell cycle. While the number of quiescent cells had been reduced to 27% in the presence of DYRK1B inhibitor R, the number of cells in S-phase of cell cycle doubled (13%) as compared to control cells (6% in FIG. 5A). DYRK1B kinase activity was necessary for Panc-1 pancreatic cancer cells to accumulate in a quiescent state. The distribution of cellular population within the cell cycle (i.e. G0, G1, S and G2/M populations) was analyzed by two-parameter flow cytometry. Specifically, the incorporation of Pyronin Y and Hoechst staining correlated to RNA and DNA content distribution, respectively. (Ewton, D. Z., Hu, J., Vilenchik, M., Deng, X., Luk, K. C., Polonskaia, A., Hoffman, A. F., Zipf, K., Boylan, J. F., and Friedman, E. A. (2011) Inactivation of mirk/dyrk1b kinase targets quiescent pancreatic cancer cells, Molecular Cancer Therapeutics 10, 2104-2114)."}},
  "data": [
    {"smiles": "COc1ncc2cc(C(=O)Nc3cc(C(=O)NCc4cccc(Cl)c4)ccc3Cl)c(=O)[nH]c2n1", "note": "[inhibitor R]", "values": [
      {"measurement": "increase of fraction of S-phase cells compared to non-treated control", "setting": "[1]", "result": 29, "unit": "%"},
      {"measurement": "S-phase population of cells", "setting": "[1]; 1 hour BrdU pulse, control 38%", "result": 49, "unit": "%"},
      {"measurement": "percentage of Panc-1 cells in G0 quiescent state", "setting": "[2]; Panc-1, 48 h serum deprivation (DMEM+0.2% FBS), then fresh media with 0.25 μM inhibitor, FACS, control 42%", "result": 27, "unit": "%"},
      {"measurement": "number of cells in S-phase of cell cycle", "setting": "[2]; Panc-1, 48 h serum deprivation, then fresh media with 0.25 μM inhibitor, FACS, control 6%", "result": 13, "unit": "%"},
      {"measurement": "entry of additional Panc-1 cells into quiescence", "setting": "[2]; Panc-1, presence of inhibitor", "result": "blocked additional Panc-1 cells from entering quiescence"}
    ]}
  ]
}
